Experimental data as given in a melting point compilation (Tetko et al.; mined from patent text by program, amines drawn as free bases though some values may be those of a salt).

melting point [°C]	SMILES
195 to 200	Cc1cc2c3c(c1)C(c1ccccc1)C(=O)N3CC(=O)N2 (centres undefined)
181 to 183	O=C(O)COc1ccc(CC2SC(=O)NC2=O)cc1 (centres undefined)
218 to 219	O=C(Nc1nnc(SCC(=O)C23CC4CC(CC(C4)C2)C3)s1)C1CC1
92	COC(=O)c1ccc(N2CCC(N(C)Cc3ccc(F)cc3)CC2)cc1
209 to 210	CSc1nn2c(N3CCN(C)CC3)cc(C)nc2c1S(=O)(=O)c1ccccc1
49 to 51	C[C@H]1CCCC(C)(C)[C@]1(C)C(=O)c1ccc(F)cc1
85 to 93	N#CCNC(=O)c1ccco1
190	Nc1cc(=O)n(Cc2ccccc2[N+](=O)[O-])[nH]1
260 to 264	O=c1c2c(Cc3ccccc3C(F)(F)F)n[nH]c2c2cccnc2n1-c1cccc(C(F)(F)F)c1
188	Clc1ccc2nc(-n3cccn3)nnc2c1
80 to 82	Cc1ccc(Oc2ccc([N+](=O)[O-])cn2)cc1
115 to 117	O=C(Nc1[nH]nc(-c2c(Cl)cc(C(F)(F)F)c(F)c2Cl)c1[N+](=O)[O-])C(Cl)Cl
229 to 231	O=C(O)C1=Cc2cc(Cl)ccc2N(Cc2ccc(C(F)(F)F)cc2)C1C(F)(F)F (centres undefined)
149 to 152	N#CC(CO)Cc1cc(O)c(O)c([N+](=O)[O-])c1 (centres undefined)
115	C[C@H](NC(C#N)CCc1ccccc1)C(=O)O (some centres undefined)
179 to 180	CC#COc1ccc2c(=O)c(C)c(-c3ccccc3)oc2c1
68 to 70	CCOC(=O)c1cccc(Cn2cnc3ccccc32)c1
121 to 122	COc1ccc(CNc2nc(NCc3ccc(C(O)C(F)(F)F)cc3)nc3ncccc23)cc1OC (centres undefined)
79 to 80	Cc1ccccc1COCCCC(=O)O

melting point [°C]	SMILES
88 to 91	CCCCOC(=O)C(NC(=O)c1cc([N+](=O)[O-])cc([N+](=O)[O-])c1)C(C)C (centres undefined)
224 to 226	CN1CC(=O)N2[C@H](c3ccc(O)c(O)c3)c3[nH]c4ccccc4c3C[C@@H]2C1=O
110 to 112	Cc1cc(OCc2ccc(-c3ccccc3-c3nnn(C(c4ccccc4)(c4ccccc4)c4ccccc4)n3)cc2)c(CCl)c(C)n1
200	O=C(N[C@H]1CC[C@H](CCN2CCN(c3nccc4c3OCC4)CC2)CC1)c1cnc(N2CCOCC2)cn1
107 to 111	COc1cc2c(Nc3cccc(Cl)c3F)ncnc2cc1OC1CCN(C(=O)[C@@H](C)O)CC1
102 to 110	CC(=O)NCC1CN(c2ccc(N3CC4CCCN(C(=O)CO)C4C3)c(F)c2)C(=O)O1 (centres undefined)
192	COC(=O)c1cc(C(=O)c2ncc3ccccn23)ccc1N
> 215	CCCCCNC1=CC(=O)C(=O)c2ccccc21
161 to 163	CCOC(=O)CC1=C(O)c2sccc2S(=O)(=O)N1C
167 to 168	COC(=O)C1=NC2=COc3c(OC)cccc3N2C1C(=O)O (centres undefined)
82	CC(C)[C@@H]1CC[C@@H](C)C[C@H]1O[C@@H]1OC(=O)[C@@H]2[C@H]1C2(C)C
189 to 191	Cc1ccc(OC2CCN(C(=O)CNc3ccc4[nH]c(=O)sc4c3)CC2)cc1
140 to 142	CC(C)c1cccc(C(C)C)c1NC(=O)CN1CC2(CCCCC2)N(c2ccccc2)S1(=O)=O
187 to 190	Cn1c(-c2ccc(Cl)cc2)cc(=O)c(C(=O)O)c1-c1ccc(Cl)cc1
81 to 82	COC(=O)CCC(C#N)(CCC(=O)OC)c1ccc(OC)c(OC2CCCC2)c1
225 to 226	Cc1ccc(-c2nn3cccnc3c2CC(N)=O)cc1
203 to 205	CCOc1c(Nc2cc(C3C(C(=O)OC)=C(C)NC(C)=C3C(=O)OC)ccc2F)c(=O)c1=O
107 to 109	CC(C)Nc1ccc(-c2ncc(C(F)(F)F)cc2Cl)cc1[N+](=O)[O-]
63 to 66	COC(C(=Cc1ccc(Cl)cc1)n1cncn1)C(C)(C)C (centres undefined)

SMILES	melting point [°C]
Cc1noc(-c2ncn3c2CN(C)C(=O)c2cc(F)ccc2-3)n1	244 to 245
